Measured values published in patent US12528816B2, “Substituted imidazo [1,2-b] pyridazines and [1, 2, 4] triazolo [ 4,3-b] pyridazines as camkii inhibitors” (Cardurion Pharmaceuticals, INC., priority 2020, dated 2026).

What follows are compounds tested against T1, human CaMKIIδ (Homo sapiens, UniProt Q13557) (assay: Evaluation of in vitro CaMKII inhibitory activity (binding assay, TR-FRET)). Settings: not given.
T1 construct: Full-length, glutathione-S-transferase(GST)-tagged, human CaMKIIδ was purchased from Carna Biosciences; purchased Carna Biosciences (CaMKIIδ); Wako Pure Chemical Industries (calmodulin) 02-111
How it was run: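 Inhibitors, in eight concentrations of 4-fold dilution, were incubated 1 h at room temperature with a protein–fluorescent probe premix preformed 30 min on ice, containing calmodulin and terbium anti-GST antibody. Displacement read by TR-FRET in duplicate; IC50 by logistic fitting.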

| Compound | IC50 [nM] |
| --- | --- |
| C[C@@H](Cn1cncn1)Oc1cc(-c2ccn3ncc(-c4cc(F)ccc4C#N)c3n2)ccn1 [compound 286] | < 10 |

Same assay, conditions: in vitro CaMKII inhibitory activity (binding assay), human CaMKIIδ; read-out: Act

| Compound | IC50 [nM] |
| --- | --- |
| C[C@@H](Cn1cnnn1)Oc1cccc(-c2ccc3ncc(-c4nccnc4C#N)n3n2)c1 [compound 262] | < 10 |
| C[C@@H](Cn1cnnn1)Oc1cc(-c2ccc3ncc(-c4cc(N=S(C)(C)=O)ccc4C#N)n3n2)ccc1F [compound 263] | > 100 |
| C[C@@H](Cn1cnnn1)Oc1cc(-c2ccc3ncc(-c4cc(N=S5(=O)CCCC5)ccc4C#N)n3n2)ccc1F [compound 264] | > 100 |
| C[C@@H](Cn1cnnn1)Oc1cc(-c2ccc3ncc(-c4cn(C)nc4C(F)(F)F)n3n2)ccc1F [compound 265] | 10 to 100 |
| Cc1c(-c2cnc3ccc(-c4ccc(F)c(O[C@@H](C)Cn5cnnn5)c4)nn23)c(C(F)(F)F)nn1C [compound 266] | > 100 |
| COc1nccnc1-c1cnc2ccc(-c3ccc(F)c(O[C@@H](C)Cn4cnnn4)c3)nn12 [compound 268] | 10 to 100 |
| COc1ncc(F)cc1-c1cnc2ccc(-c3ccc(F)c(O[C@@H](C)Cn4cnnn4)c3)nn12 [compound 270] | < 10 |
| C[C@@H](Cn1cnnn1)Oc1cccc(-c2ccc3ncc(-c4cc[nH]c(=O)c4C#N)n3n2)c1 [compound 272, 2-oxo-4-[6-(3-{[(2S)-1-(1H-tetrazol-1-yl)propan-2-yl]oxy}phenyl)imidazo[1,2-b]pyridazin-3-yl]-1,2-dihydropyridine-3-carbonitrile] | < 10 |
| C[C@@H](Cn1cnnn1)Oc1cccc(-c2ccc3ncc(-c4ncncc4C#N)n3n2)c1 [compound 273] | 10 to 100 |
| C[C@@H](Cn1cnnn1)Oc1cccc(-c2ccc3ncc(-c4nccc(C5CC5)c4C#N)n3n2)c1 [compound 274] | < 10 |
| C[C@@H](Cn1cnnn1)Oc1cccc(-c2ccc3ncc(-c4c[n+]([O-])ccc4C#N)n3n2)c1 [compound 276] | < 10 |
| Cc1cnc(C#N)c(-c2cnc3ccc(-c4cccc(O[C@@H](C)Cn5cnnn5)c4)nn23)n1 [compound 277] | < 10 |
| Cc1ccc(C#N)c(-c2cnc3ccc(-c4cccc(O[C@@H](C)Cn5cnnn5)c4)nn23)n1 [compound 278] | < 10 |
| C[C@@H](Cn1cnnn1)Oc1cccc(-c2ccc3ncc(-c4ccncc4C#N)n3n2)c1 [compound 279, 4-[6-(3-{[(2S)-1-(1H-tetrazol-1-yl)propan-2-yl]oxy}phenyl)imidazo[1,2-b]pyridazin-3-yl]pyridine-3-carbonitrile] | < 10 |
| C[C@@H](Cn1cnnn1)Oc1cccc(-c2ccc3ncc(-c4nnccc4C#N)n3n2)c1 [compound 280] | < 10 |
| COc1cnc(-c2cnc3ccc(-c4cccc(O[C@@H](C)Cn5cnnn5)c4)nn23)c(C#N)c1 [compound 281] | < 10 |
| C[C@@H](Cn1cnnn1)Oc1cccc(-c2ccc3ncc(-c4cc[n+]([O-])cc4C#N)n3n2)c1 [compound 282] | 10 to 100 |
| C[C@@H](Cn1cnnn1)Oc1cccc(-c2ccc3ncc(-c4cnccn4)n3n2)c1 [compound 283] | < 10 |
| COc1cnc(C#N)c(-c2cnc3ccc(-c4cccc(O[C@@H](C)Cn5cnnn5)c4)nn23)n1 [compound 285] | < 10 |
| C[C@@H](Cn1cnnn1)Oc1cncc(-c2ccc3ncc(-c4cc(F)ccc4C#N)n3n2)c1 [compound 287, 4-fluoro-2-[6-(5-{[(2S)-1-(1H-tetrazol-1-yl)propan-2-yl]oxy}pyridin-3-yl)imidazo[1,2-b]pyridazin-3-yl]benzonitrile] | < 10 |
| C[C@@H](Cn1cnnn1)Oc1cc(-c2ccc3ncc(-c4nccnc4C#N)n3n2)ccc1F [compound 290] | < 10 |
| C[C@@H](Cn1cnnn1)Oc1cc(-c2ccc3ncn(-c4cc(F)ccc4C#N)c3n2)ccc1F [compound 292] | < 10 |

| Compound | IC50 [nM] |
| --- | --- |
| C[C@@H](Cn1cnnn1)Oc1ccc(F)c(-c2ccc3ncc(-c4ncccc4C#N)n3n2)c1 [compound 293] | 10 to 100 |
| C[C@@H](Cn1cnnn1)Oc1cc(-c2ccn3ncc(-c4nccnc4C#N)c3n2)ccc1F [compound 294] | < 10 |
| C[C@@H](Cn1cnnn1)Oc1cc(-c2ccn3ncc(-c4ncccc4C#N)c3n2)ccc1F [compound 295] | < 10 |
| C[C@@H](Cn1cnnn1)Oc1cc(F)cc(-c2ccc3ncc(-c4ncccc4C#N)n3n2)c1 [compound 296] | < 10 |
| C[C@@H](Cn1cnnn1)Oc1cc(-c2ccc3ncc(-c4c(C#N)ccc[n+]4[O-])n3n2)ccc1F [compound 297] | 10 to 100 |
| C[C@@H](Cn1cnnn1)Oc1cc(-c2ccc3ncc(-c4cc(F)ccc4C#N)n3n2)ncn1 [compound 299] | 10 to 100 |
| C[C@@H](Cn1cnnn1)Oc1cccc(-c2ccc3ncc(-c4[nH]ccc(=O)c4C#N)n3n2)c1 [compound 301, 4-oxo-2-[6-(3-{[(2S)-1-(1H-tetrazol-1-yl)propan-2-yl]oxy}phenyl)imidazo[1,2-b]pyridazin-3-yl]-1,4-dihydropyridine-3-carbonitrile] | 10 to 100 |
| C[C@@H](Cn1cnnn1)Oc1cccc(-c2ccn3ncc(-c4nccnc4C#N)c3n2)c1 [compound 302] | < 10 |
| C[C@@H](Cn1cnnn1)Oc1cccc(-c2ccc3ncc(-c4ccccc4C=O)n3n2)c1 [compound 303] | < 10 |
| C[C@@H](Cn1cnnn1)Oc1cccc(-c2ccn3ncc(-c4ncccc4C#N)c3n2)c1 [compound 304] | < 10 |
| C[C@@H](Cn1cnnn1)Oc1cccc(-c2ccc3ncc(-c4ccccc4CN=S(C)(C)=O)n3n2)c1 [compound 306] | 10 to 100 |
| C[C@@H](Cn1cnnn1)Oc1cccc(-c2ccc3ncc(-c4ccccc4CN(C)C)n3n2)c1 [compound 307] | 10 to 100 |
| C[C@@H](Cn1cnnn1)Oc1cccc(-c2ccc3ncc(-c4ccccc4CO)n3n2)c1 [compound 308] | < 10 |
| C[C@@H](Cn1cnnn1)Oc1cccc(-c2ccn3ncc(-c4cnccc4C(N)=O)c3n2)c1 [compound 309] | 10 to 100 |
| C[C@@H](Cn1cnnn1)Oc1cccc(-c2ccn3ncc(-c4cnccc4C#N)c3n2)c1 [compound 310] | < 10 |
| COc1nc(-c2cnc3ccc(-c4cccc(O[C@@H](C)Cn5cnnn5)c4)nn23)ccc1C#N [compound 312] | < 10 |
| C[C@@H](Cn1cnnn1)Oc1cc(-c2ccc3ncc(-c4cc(F)c[nH]c4=O)n3n2)ccc1F [compound 314] | < 10 |
| COc1ncc(F)cc1-c1cnc2ccc(-c3cccc(O[C@@H](C)Cn4cnnn4)c3)nn12 [compound 315] | < 10 |
| C[C@@H](Cn1cnnn1)Oc1cncc(-c2ccc3ncn(-c4cc(F)ccc4C#N)c3n2)c1 [compound 316] | < 10 |
| C[C@@H](Cn1cnnn1)Oc1cc(-c2ccc3ncc(-c4cc(F)cn(C)c4=O)n3n2)ccc1F [compound 317] | < 10 |
| C[C@@H](Cn1cnnn1)Oc1cccc(-c2ccc3ncc(-c4cc(=O)[nH]cc4C#N)n3n2)c1 [compound 318] | < 10 |
| C[C@@H](Cn1cnnn1)Oc1cc(-c2ccn3ncc(-c4cc(F)ccc4C#N)c3n2)ccn1 [compound 319] | < 10 |

| Compound | IC50 [nM] |
| --- | --- |
| COc1cccc(-c2cnc3ccc(-c4cccc(O[C@@H](C)Cn5cnnn5)c4)nn23)c1C#N [compound 322] | < 10 |
| COc1ncc(Cl)cc1-c1cnc2ccc(-c3cccc(O[C@@H](C)Cn4cnnn4)c3)nn12 [compound 323] | < 10 |
| C[C@@H](Cn1cnnn1)Oc1cccc(-c2ccc3ncc(-c4cc(F)c[nH]c4=O)n3n2)c1 [compound 324] | < 10 |
| COc1ncc(C)cc1-c1cnc2ccc(-c3cccc(O[C@@H](C)Cn4cnnn4)c3)nn12 [compound 327] | < 10 |
| C[C@@H](Cn1cnnn1)Oc1cccc(-c2ccc3ncc(-c4cc(Cl)c[nH]c4=O)n3n2)c1 [compound 328] | < 10 |
| Cc1c[nH]c(=O)c(-c2cnc3ccc(-c4cccc(O[C@@H](C)Cn5cnnn5)c4)nn23)c1 [compound 329] | < 10 |
| C[C@@H](Cn1cnnn1)Oc1ccnc(-c2ccc3ncn(-c4cc(F)ccc4C#N)c3n2)c1 [compound 330] | < 10 |
| C[C@@H](Cn1cnnn1)Oc1cccc(-c2ccc3ncc(-c4cc(F)cn(C)c4=O)n3n2)c1 [compound 331] | < 10 |
| COc1ncccc1-c1cnc2ccc(-c3cccc(O[C@@H](C)Cn4cnnn4)c3)nn12 [compound 332] | < 10 |
| Cc1cc(-c2cnc3ccc(-c4cccc(O[C@@H](C)Cn5cnnn5)c4)nn23)c(C#N)cn1 [compound 333] | < 10 |
| C[C@@H](Cn1cnnn1)Oc1cccc(-c2ccc3ncc(-c4cc(Cl)cn(C)c4=O)n3n2)c1 [compound 334] | < 10 |
| Cc1cc(-c2cnc3ccc(-c4cccc(O[C@@H](C)Cn5cnnn5)c4)nn23)c(=O)n(C)c1 [compound 335] | < 10 |
| C[C@@H](Cn1cnnn1)Oc1cccc(-c2ccc3ncc(-c4cc(F)cnc4OCC(F)F)n3n2)c1 [compound 336] | < 10 |
| C[C@@H](Cn1cnnn1)Oc1cccc(-c2ccc3ncc(-c4cc(F)cn(CC(F)F)c4=O)n3n2)c1 [compound 337] | < 10 |
| C[C@@H](Cn1cnnn1)Oc1cccc(-c2ccc3ncc(-c4cc(F)cnc4OCC(F)(F)F)n3n2)c1 [compound 338] | < 10 |
| C[C@@H](Cn1cnnn1)Oc1cccc(-c2ccc3ncc(-c4cc(F)cn(CC(F)(F)F)c4=O)n3n2)c1 [compound 339] | < 10 |
| C[C@@H](Cn1cnnn1)Oc1cccc(-c2ccc3ncc(-c4cccn(CC(F)F)c4=O)n3n2)c1 [compound 340] | < 10 |
| C[C@@H](Cn1cnnn1)Oc1cccc(-c2ccc3ncc(-c4cccn(CCOCC(F)(F)F)c4=O)n3n2)c1 [compound 341] | < 10 |
| C[C@@H](Cn1cnnn1)Oc1cc(-c2ccc3ncn(-c4cc(F)ccc4C#N)c3n2)ccn1 [compound 343] | < 10 |
| C[C@@H](Cn1cnnn1)Oc1cccc(-c2ccc3ncc(-c4nccc(OCC(F)(F)F)c4C#N)n3n2)c1 [compound 344] | < 10 |
| C[C@@H](Cn1cnnn1)Oc1ccnc(-c2ccc3ncn(-c4cc(F)ccc4C#N)c3n2)n1 [compound 346] | 10 to 100 |
